Laboratory results: patent US20060088472A1, “E7 regulation of p21 cip1 through akt” (priority 2002, published 2006)
Read-outs that look alike come from different tables or passages of the source. Residues, ends and D or L forms follow the SMILES beside them. *: point of attachment. Cbz = O=C(OCc1ccccc1)*

T1: RB (retinoblastoma protein, endogenous, in lysate of RafAR-NIH3T3 control cells) (UniProt P13405 2-921)
T1 sequence: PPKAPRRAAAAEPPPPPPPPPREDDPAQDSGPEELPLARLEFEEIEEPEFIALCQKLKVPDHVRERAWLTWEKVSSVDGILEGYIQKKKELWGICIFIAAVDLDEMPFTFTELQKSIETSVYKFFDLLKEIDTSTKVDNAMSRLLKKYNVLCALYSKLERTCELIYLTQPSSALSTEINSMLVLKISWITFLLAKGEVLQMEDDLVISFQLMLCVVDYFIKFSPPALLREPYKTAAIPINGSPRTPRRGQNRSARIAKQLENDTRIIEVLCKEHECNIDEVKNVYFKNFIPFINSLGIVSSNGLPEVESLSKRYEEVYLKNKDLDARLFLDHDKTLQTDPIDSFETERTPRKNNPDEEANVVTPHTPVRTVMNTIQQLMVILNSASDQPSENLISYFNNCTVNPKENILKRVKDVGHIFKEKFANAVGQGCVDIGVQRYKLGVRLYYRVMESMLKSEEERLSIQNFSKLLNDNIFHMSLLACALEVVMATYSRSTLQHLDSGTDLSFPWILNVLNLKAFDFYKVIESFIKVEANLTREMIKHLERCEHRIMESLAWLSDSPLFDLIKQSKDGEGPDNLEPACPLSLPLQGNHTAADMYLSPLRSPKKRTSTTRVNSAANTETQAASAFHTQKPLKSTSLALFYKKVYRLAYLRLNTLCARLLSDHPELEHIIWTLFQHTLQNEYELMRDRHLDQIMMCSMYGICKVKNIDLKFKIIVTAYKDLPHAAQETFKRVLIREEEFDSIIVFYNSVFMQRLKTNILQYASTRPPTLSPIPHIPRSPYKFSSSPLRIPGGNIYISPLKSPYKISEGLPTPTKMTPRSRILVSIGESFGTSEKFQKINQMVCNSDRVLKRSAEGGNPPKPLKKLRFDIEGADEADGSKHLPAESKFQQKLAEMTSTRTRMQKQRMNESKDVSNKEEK

B1: purified recombinant GST-E7 (HPV16 E7) (other)
chain: MHGDTPTLHEYMLDLQPETTDLYCYEQLNDSSEEEDEIDGPAGQAEPDRAHYNIVTFCCKCDSTLRLCVQSTHVDIRTLEDLLMGTLGIVCPICSQKP
B2: p21^Cip1 (endogenous, in lysates of RafAR-expressing NIH3T3 cells) (other, UniProt P39689 2-159, looked up)
chain: SNPGDVRPVPHRSKVCRCLFGPVDSEQLRRDCDALMAGCLQEARERWNFDFVTETPLEGNFVWERVRSLGLPKVYLSPGSRSRDDLGGDKRPSTSSALLQGPAPEDHVALSLSCTLVSERPEDSPGGPGTSQGRKRRQTSLTDFYHSKRRLVFCKRKP
notes: also called p21^Cpi1

What was measured:
[1] = tested on: Akt phosphorylated on serine 473 (P-Akt); assay type: cell-based, murine
Protocol: The drugs and R1881 were added at 0 hr and the samples were taken at 6 hrs post-treatment.
Immunoblotting and immunoprecipitations (IP). Cell pellets were lysed in HLB lysis buffer (50 mM Tris pH 8.0, 150 mM NaCl, 1% Triton X-100, 1 mM DTT, and protease inhibitor cocktail (Sigma P8340)) for 30 minutes with vortexing. After centrifugation, protein content was quantitated via a standard BioRad Bradford assay. For immunoblotting, 30-50 μg of cell lysate was separated by sodium dodecyl sulfate-polyacrylamide gel electrophoresis (SDS-PAGE) and transferred onto nitrocellulose membrane (Schleicher and Schuell). After incubation with primary and secondary antibodies, antigen detection was performed using the enhanced chemiluminescence kit from NEN. The following antibodies were obtained from Santa Cruz: α-cyclin D1 (sc-450, Western), α-cyclin D2 (sc-593, Western), α-cyclin E (sc-481, IP and Western), α-human cyclin E (sc-198, IP and Western), α-CDK2 (sc-163 g, IP and Western), α-CDK4 (sc-260, IP and Western), α-p21^Cip1 (sc-6246, Western), α-p21^Cip1 (sc-397, IP and immunofluorescence), and a-phospho-threonine (sc-5267, Western). HPV-16 E7-specific and RB-specific antibodies were purchased from Zymed and Pharmingen, respectively. Antibodies recognizing Akt or Akt phosphorylated at serine-473 were obtained from Cell Signaling. For immunoprecipitations, cell lysates were incubated with primary antibodies for 2 hours at 4° C., and immune-complexes were collected on Protein A-agarose beads (Santa Cruz) for an additional 1 hour. The complexes were washed four times with HLB buffer and resolved by 12% SDS-PAGE for immunoblotting.
c-Raf-1 was induced by addition of the androgen analog R1881, as described herein and the cells harvested at various times thereafter.

[2] = tested on: RafAR-expressing NIH3T3; test: Cell morphology after RafAR activation in NIH3T3; assay type: cell-based, murine; settings: RafAR activation with 1.0 μM R1881
[3] = tested on: NIH3T3 cells stably expressing the RafAR fusion protein; test: Cell cycle analysis (BrdU incorporation / propidium iodide) in RafAR-expressing NIH3T3 cells; assay type: cell-based, murine; settings: control cells (Babe), RafAR activation with 1.0 μM R1881, 30 hours
Protocol: (A) NIH3T3 cells stably expressing the RafAR fusion protein were infected with amphotrophic retroviruses expressing HPV-16 E7 (E7) or empty vector (Babe). Lysates were prepared and 100 μg of protein was resolved by 15% SDS-PAGE, transferred to nitrocellulose membrane, and probed with a monoclonal antibody directed against HPV-16 E7. (B and C) Pools of Babe- or E7-expressing cells growing in DMEM plus 10% NCS were treated with 0.02% ethanol (−) or 1.0 μM R1881 (+) for 30 hours and pulsed with BrdU for 30 minutes. Cells were trypsinized, fixed in 70% ethanol, and stained with propidium iodide (PI) for detection of total DNA content (B) and with α-BrdU-FITC for detection of DNA synthesis (C).
(A) E7-expressing cells were treated for 30 hours with 1.0 μM R1881 in the absence or presence of increasing concentrations of LY294002 (50 μM, 100 μM, 200 μM), an inhibitor of PI-3K activity. DNA synthesis was measured via BrdU incorporation. (B) E7-expressing cells were treated with 1.0 uM R1881 in the presence or absence of 100 uM LY294002, stained with p21^Cip1-specific antibody, and quantitated for nuclear p21^Cip1 localization as in FIG. 7. […] Cells were stained with α-BrdU, and GFP-positive cells were scored for BrdU incorporation via indirect immunofluorescence. Percentages of BrdU incorporation were calculated by defining the number obtained from vehicle-treated cells as 100%. […]

[4] = tested on: p27^Kip1 nuclear localization; test: p27^Kip1 localization by immunofluorescence in TGF-β treated tet-E7 Mv1Lu cells; assay type: cell-based, mink; settings: 3 ng/mL TGF-β, 24 hours, absence of E7
Protocol: (A) Tet-E7 Mv1Lu cells were treated for 24 hours with 2 μg/mL doxycycline or vehicle. Cell lysates were analyzed by Western blotting with antibody specific for HPV16 E7. (B) Tet-E7 Mv1Lu cells were treated for 24 hours with 3 ng/mL TGF-β in the presence or absence of 2 μg/mL doxycycline and subsequently analyzed for p27^Kip1 expression via Western blot. (C, D) Tet-E7 Mv1Lu cells were treated as in (B), fixed with 3.7% paraformaldehyde, and stained with p27^Kip1 specific antibody as described in Materials and Methods. (C) Representative fluorescent (left panels) and phase contrast (right panels) micrographs of TGF-β treated cells in the absence (upper panels) or presence (lower panels) of doxycycline. […] The number of cells with nuclear p27^Kip1 accumulation is represented as a percentage of total cells counted. The average and deviation values shown are from two independent experiments with at least 200 cells counted per experiment.
Cell culture. NIH3T3 cells stably expressing the RafAR fusion protein have been described previously (Sewing et al., 1997). This cell line and all derivatives were cultured in DMEM without phenol red (GIBCO-BRL) supplemented with 10% charcoal-stripped newborn calf serum (NCS, Hyclone). […]
Immunofluorescence. […] Antigen staining was visualized by inverted fluorescence microscopy (Olympus CK40), and images were captured with Quality Imaging camera and software. […]

[5] = tested on: human foreskin keratinocytes (HFK); test: Adriamycin DNA damage in control or E7-expressing HFK, Western blots for active Akt and p21^CIP; assay type: cell-based; settings: 0.1 mM Adriamycin, 17 hours
[6] = target: B2; test: GST pull-down from control cell lysate, Western blot
[7] = target: T1, RB (retinoblastoma protein, endogenous, …); test: as above
[8] = target: cyclin E (endogenous, in lysates of RafAR-NIH3T3 cells) (UniProt Q61457 1-408); test: cyclin E immunoprecipitation, p21^Cip1 Western blot
[9] = drug added with R1881 at 0 hr, samples taken 6 hrs post-treatment

C[C@@H]1C[C@@H]([C@H](O)CC2CC(=O)NC(=O)C2)C(=O)[C@@H](C)C1 [cyclohexamide]
down-regulation of active Akt (P-Akt) on induction of c-Raf-1 [1, 9]: inhibited the down-regulation of Akt

CC(C)C[C@@H](C=O)NC(=O)[C@H](CC(C)C)NC(=O)[C@H](CC(C)C)NC(=O)OCc1ccccc1 [MG132] (Cbz-Leu-Leu-Leu-aldehyde)
down-regulation of active Akt (P-Akt) on induction of c-Raf-1 [1, 9]: down-regulation of P-Akt was similar to control cells

C[C@]1(O)CC[C@H]2[C@@H]3CCC4=CC(=O)CCC4=C3C=C[C@@]21C [R1881, methyltrienolone]
cell morphology [2]: morphological changes including elongation and development of extended processes | DNA synthesis [3]: inhibition of DNA synthesis | cells accumulating in G1 [3]: > 85% | time post-treatment at which down-regulation of active Akt (P-Akt) is observed ([1]; c-Raf-1 induced by R1881): ≤ 5 h | time post-treatment at which total Akt protein levels decrease ([1]; c-Raf-1 induced by R1881): 19 to 26 h

TGF-β
nuclear accumulation of p27^Kip1 [4]: robust nuclear accumulation

N#CC(=C(/N)Sc1ccccc1N)/C(C#N)=C(\N)Sc1ccccc1N [U0126]
basal level of active Akt [1]: increased | down-regulation of active Akt (P-Akt) on induction of c-Raf-1 [1]: down-regulation is inhibited

COc1cccc2c1C(=O)c1c(O)c3c(c(O)c1C2=O)C[C@@](O)(C(=O)CO)C[C@@H]3O[C@H]1C[C@H](N)[C@H](O)[C@H](C)O1 [adriamycin]
active Akt levels after adriamycin treatment [5]: maintained only in E7-expressing cells | p21^CIP levels after adriamycin treatment [5]: increased

B1
binding result [6]: no binding | binding result [7]: binds

B2
binding result [8]: binds
